Measurements reported in US20090258098A1, “PENETRATING CARRIER, ANTIFUNGAL COMPOSITION USING THE SAME AND METHOD FOR TREATMENT OF DERMATOPHYTE INFECTIONS” (priority 2008, published 2009).

Experiments:
[1] = system: four dermatophytes (E. floccosum, M. gypseum, T. mentagrophytes, and T. rubrum); assay: Poison media procedure; assay type: cell-based; details: 100 ppm
Procedure: (§1) Each individual essential oil component was mixed with molten modified Sabouraud agar in 100 ppm, 500 ppm, or 1000 ppm (v/v). The poison media agar was then poured and allowed to cool for at least 48 hours. Separate cultures of four dermatophytes (i.e.: E. floccosum, M. gypseum, T. mentagrophytes, and T. rubrum) were grown on modified Sabouraud agar for four days until a confluent mat of mycelium developed. The four cultures were then cut into 8 mm plugs and placed upside down with the fungi culture on the surface of the poison media. This procedure was run in triplicate. In addition, several mixtures containing various combinations of the essential oil components were tested using the same procedure. The plates were incubated for one week at 30° C. Plates were then examined for growth. Plates with no visible growth after one week on the poison media were listed as fungistatic
(§2) Plugs showing no growth on the poison media were then transferred to modified SDA, allowed to incubate for an additional week at 30° C., and then reexamined for growth. All components were run in triplicate. Plates with no growth after the additional week were listed as fungicidal.

[2] = system: Trichophyton mentagrophytes; assay: Minimum inhibitory concentration, poison media procedure; assay type: cell-based
Procedure: as §1, §2

Microsporum gypseum = assay: as above; assay type: cell-based
Procedure: as §1, §2

Epidermophyton floccosum = assay: as above; assay type: cell-based
Procedure: as §1, §2

Trichopyton rubrum = assay: as above; assay type: cell-based, Trichophyton rubrum
Procedure: as §1, §2

[3] = system: dermatophytic fungal strains; assay: Disk assay of essential oil components; assay type: cell-based; details: disk loaded with 500, 1000, 1500 or 3000 ppm
Procedure: Various embodiments of the penetrating carrier system of the present invention were tested for their antimicrobial/biostatic potential by a laboratory test method, which provides a qualitative and semi-qualitative procedure for the evaluation of antimicrobial activity by disk assay. All dermatophytic fungal strains (Table 1) were grown on modified Sabouraud agar (pH adjusted to 7). The cultures were grown for one week previous to the experiments at 30° C., while stock culture plates were maintained at 4° C. until needed. […] The sterile disk was then loaded with 500 ppm, 1000 ppm, 1500 ppm or 3000 ppm of the test compound. A control was provided by placing 2 ul of alcohol on plates that were inoculated for this purpose. The plates were incubated for seven (7) days at 30° C. The zone of inhibition was measured around each loaded disk in four directions. The average measurement was then determined and recorded in millimeters as the zone of inhibition.

[4] = 100 ppm (v/v) in modified Sabouraud agar, one week at 30° C.
[5] = 500 ppm (v/v) in modified Sabouraud agar, one week at 30° C.
[6] = 1000 ppm (v/v) in modified Sabouraud agar, one week at 30° C.

| Compound | Inhibition of growth [1] | Growth on poison media (fungistatic / fungicidal / growth) [2, 4] | Growth on poison media (fungistatic / fungicidal / growth) [2, 5] | Growth on poison media (fungistatic / fungicidal / growth) [2, 6] | Growth on poison media (fungistatic / fungicidal / growth) (Microsporum gypseum; [4]) | Growth on poison media (fungistatic / fungicidal / growth) (Microsporum gypseum; [5]) | Growth on poison media (fungistatic / fungicidal / growth) (Microsporum gypseum; [6]) | Growth on poison media (fungistatic / fungicidal / growth) (Epidermophyton floccosum; [4]) | Growth on poison media (fungistatic / fungicidal / growth) (Epidermophyton floccosum; [5]) | Growth on poison media (fungistatic / fungicidal / growth) (Epidermophyton floccosum; [6]) | Growth on poison media (fungistatic / fungicidal / growth) (Trichopyton rubrum; [4]) | Growth on poison media (fungistatic / fungicidal / growth) (Trichopyton rubrum; [5]) | Growth on poison media (fungistatic / fungicidal / growth) (Trichopyton rubrum; [6]) | Rank among essential oil components in the disk assay [3] | other results |
| --- | --- | --- | --- | --- | --- | --- | --- | --- | --- | --- | --- | --- | --- | --- | --- |
| Cc1ccc(C(C)C)cc1O [Carvacrol] | inhibit the growth of several organisms | [empty] | fungicidal | fungicidal | fungistatic | fungicidal | fungicidal | [empty] | fungicidal | fungicidal | fungistatic | fungicidal | fungicidal | most inhibitory | – |
| O=CC=Cc1ccccc1 [Cinnamaldehyde] | – | [empty] | [empty] | fungicidal | [empty] | fungicidal | fungicidal | [empty] | fungicidal | fungicidal | [empty] | fungicidal | fungicidal | most inhibitory | – |
| CC(C)=CCCC(C)=CC=O [Citral] | – | [empty] | [empty] | fungistatic | [empty] | [empty] | fungicidal | [empty] | [empty] | [empty] | [empty] | [empty] | fungicidal | most inhibitory | – |
| C=CCc1ccc(O)c(OC)c1 [Eugenol] | – | [empty] | fungistatic | fungistatic | [empty] | fungicidal | fungicidal | [empty] | fungicidal | fungicidal | [empty] | fungistatic | fungicidal | most inhibitory | – |
| C=CCc1ccc(OC)c(OC)c1 [Methyl Eugenol] | – | – | – | – | – | – | – | – | – | – | – | – | – | – | Growth on poison media (fungistatic / fungicidal / growth) ([2]; 168 h, 100 ppm): [empty]; Growth on poison media (fungistatic / fungicidal / growth) ([2]; 168 h, 500 ppm): fungistatic; Growth on poison media (fungistatic / fungicidal / growth) ([2]; 168 h, 1000 ppm): fungistatic; Growth on poison media (fungistatic / fungicidal / growth) (Microsporum gypseum; 168 h, 100 ppm): [empty]; Growth on poison media (fungistatic / fungicidal / growth) (Microsporum gypseum; 168 h, 500 ppm): fungistatic; Growth on poison media (fungistatic / fungicidal / growth) (Microsporum gypseum; 168 h, 1000 ppm): fungistatic; Growth on poison media (fungistatic / fungicidal / growth) (Epidermophyton floccosum; 168 h, 100 ppm): [empty]; Growth on poison media (fungistatic / fungicidal / growth) (Epidermophyton floccosum; 168 h, 500 ppm): fungistatic; Growth on poison media (fungistatic / fungicidal / growth) (Epidermophyton floccosum; 168 h, 1000 ppm): fungistatic; Growth on poison media (fungistatic / fungicidal / growth) (Trichopyton rubrum; 168 h, 100 ppm): [empty]; Growth on poison media (fungistatic / fungicidal / growth) (Trichopyton rubrum; 168 h, 500 ppm): fungistatic; Growth on poison media (fungistatic / fungicidal / growth) (Trichopyton rubrum; 168 h, 1000 ppm): fungistatic |
| Cc1ccc(C(C)C)c(O)c1 [Thymol] | inhibit the growth of several organisms | fungistatic | fungicidal | fungicidal | fungistatic | fungicidal | fungicidal | fungistatic | fungicidal | fungicidal | fungicidal | fungicidal | fungicidal | most inhibitory | – |
